Usually IC50 stands for the point on the concentration scale where inhibition reaches its midpoint.

T1 sequence (O00763 144-2458): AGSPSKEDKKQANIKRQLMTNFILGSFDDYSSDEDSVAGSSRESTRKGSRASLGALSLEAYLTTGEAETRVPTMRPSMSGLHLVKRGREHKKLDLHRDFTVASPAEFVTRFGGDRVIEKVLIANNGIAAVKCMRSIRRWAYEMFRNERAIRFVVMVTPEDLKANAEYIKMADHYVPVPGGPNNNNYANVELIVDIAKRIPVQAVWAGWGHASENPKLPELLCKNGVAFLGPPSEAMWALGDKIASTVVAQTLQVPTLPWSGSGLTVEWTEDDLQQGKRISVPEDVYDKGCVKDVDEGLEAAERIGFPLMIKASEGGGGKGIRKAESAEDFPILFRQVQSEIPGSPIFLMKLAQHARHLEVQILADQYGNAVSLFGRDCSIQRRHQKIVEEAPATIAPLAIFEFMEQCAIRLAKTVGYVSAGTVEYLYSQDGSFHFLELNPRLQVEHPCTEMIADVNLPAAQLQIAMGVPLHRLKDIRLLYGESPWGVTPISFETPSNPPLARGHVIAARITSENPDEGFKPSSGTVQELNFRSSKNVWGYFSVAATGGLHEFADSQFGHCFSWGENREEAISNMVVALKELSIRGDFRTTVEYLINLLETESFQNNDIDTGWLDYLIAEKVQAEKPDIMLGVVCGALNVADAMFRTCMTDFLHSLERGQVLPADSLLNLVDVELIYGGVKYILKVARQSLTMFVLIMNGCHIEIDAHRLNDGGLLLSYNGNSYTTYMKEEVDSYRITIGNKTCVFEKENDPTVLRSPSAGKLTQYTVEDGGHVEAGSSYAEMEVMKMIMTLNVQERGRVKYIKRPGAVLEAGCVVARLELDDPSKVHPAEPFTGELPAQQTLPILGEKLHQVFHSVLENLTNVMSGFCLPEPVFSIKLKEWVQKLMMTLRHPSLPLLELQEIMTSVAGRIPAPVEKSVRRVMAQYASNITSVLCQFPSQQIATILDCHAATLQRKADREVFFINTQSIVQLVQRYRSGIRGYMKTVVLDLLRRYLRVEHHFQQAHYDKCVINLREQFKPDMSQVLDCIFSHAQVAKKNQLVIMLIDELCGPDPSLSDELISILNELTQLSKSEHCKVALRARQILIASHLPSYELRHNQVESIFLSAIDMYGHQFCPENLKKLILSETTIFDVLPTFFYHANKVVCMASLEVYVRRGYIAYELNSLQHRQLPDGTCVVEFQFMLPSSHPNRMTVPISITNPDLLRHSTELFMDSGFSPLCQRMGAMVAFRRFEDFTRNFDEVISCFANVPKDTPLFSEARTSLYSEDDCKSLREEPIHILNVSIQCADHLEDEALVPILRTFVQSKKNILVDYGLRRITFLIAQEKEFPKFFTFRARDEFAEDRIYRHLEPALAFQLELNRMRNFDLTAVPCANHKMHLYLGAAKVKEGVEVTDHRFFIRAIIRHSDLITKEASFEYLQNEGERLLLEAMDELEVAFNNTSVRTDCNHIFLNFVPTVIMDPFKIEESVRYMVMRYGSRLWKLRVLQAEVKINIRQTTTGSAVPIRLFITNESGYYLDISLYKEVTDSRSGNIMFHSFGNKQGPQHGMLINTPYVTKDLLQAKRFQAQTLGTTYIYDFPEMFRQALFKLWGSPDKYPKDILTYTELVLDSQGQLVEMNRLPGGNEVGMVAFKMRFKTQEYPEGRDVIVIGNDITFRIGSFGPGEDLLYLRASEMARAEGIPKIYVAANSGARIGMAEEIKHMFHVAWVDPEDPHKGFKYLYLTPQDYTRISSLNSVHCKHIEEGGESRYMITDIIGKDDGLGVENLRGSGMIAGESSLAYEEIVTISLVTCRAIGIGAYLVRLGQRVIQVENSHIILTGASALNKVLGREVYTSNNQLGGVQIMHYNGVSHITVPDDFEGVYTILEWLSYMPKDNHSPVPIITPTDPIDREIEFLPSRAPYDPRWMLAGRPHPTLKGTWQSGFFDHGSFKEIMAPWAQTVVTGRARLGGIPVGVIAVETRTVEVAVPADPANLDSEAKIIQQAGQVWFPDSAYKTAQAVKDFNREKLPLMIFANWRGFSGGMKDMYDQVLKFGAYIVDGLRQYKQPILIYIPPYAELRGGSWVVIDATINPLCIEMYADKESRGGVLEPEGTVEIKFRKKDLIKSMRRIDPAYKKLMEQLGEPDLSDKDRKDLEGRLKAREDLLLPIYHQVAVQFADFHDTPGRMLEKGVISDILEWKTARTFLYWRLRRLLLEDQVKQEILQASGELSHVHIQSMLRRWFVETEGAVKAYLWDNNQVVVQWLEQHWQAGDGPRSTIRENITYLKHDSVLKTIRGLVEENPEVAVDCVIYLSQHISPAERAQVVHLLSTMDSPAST

This assay has as its target T1, human acetyl-CoA carboxylase 2 (ACC2) (Homo sapiens, UniProt O00763).
T1 construct: The cDNA encoding amino acids 144 to 2458 of human acetyl-CoA carboxylase 2; made in house; host or cells: Sf9 insect cells (baculovirus, pFastBac1)
Kind of assay: Acetyl-CoA carboxylase enzyme assay (malonyl-CoA formation by LC/MS/MS). In kind it is biochemical. As to conditions: recombinant human ACC2 (aa 144-2458); read-out: IC50 ACC2. A digest of the protocol:
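Malonyl-CoA formation was read by LC/MS/MS MRM against a [13C3]-malonyl-CoA internal standard, after acetic acid quench. The enzyme was baculovirus/Sf9-expressed human ACC2 residues 144–2458, given 15 minutes room-temperature compound preincubation in HEPES pH 7.5 buffer with MgCl2, citrate and DTT. Substrate solution held 50 μM acetyl-CoA, 120 μM ATP and 2 mM KHCO3.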
With `Cn1c(-c2ccccc2)cc2cc(S(=O)(=O)N[C@H]3CC[C@H](C(=O)N[C@H](CC(=O)OC(C)(C)C)c4ccccc4)CC3)ccc21` [Example 94, (R)-tert-butyl 3-((1r,4R)-4-(1-methyl-2-phenyl-1H-indole-5-sulfonamido)cyclohexanecarboxamido)-3-phenylpropanoate], the IC50 is 75 nM. With `COc1ccc(-c2cc3ccc(S(=O)(=O)N[C@H]4CC[C@H](C(=O)N[C@H](C)c5ccc(F)cc5)CC4)cc3[nH]2)c(C)c1` [Example 297, (1r,4R)-N-((R)-1-(4-fluorophenyl)ethyl)-4-(2-(4-methoxy-2-methylphenyl)-1H-indole-6-sulfonamido)cyclohexanecarboxamide] the figure was 17 nM; with `O=C([C@H]1CC[C@H](NS(=O)(=O)c2ccc3[nH]c(-c4ccccc4)nc3c2)CC1)N1CCc2ccccc2C1` [Example 616, 2-phenyl-N-((1r,4r)-4-(1,2,3,4-tetrahydroisoquinoline-2-carbonyl)cyclohexyl)-1H-benzo[d]imidazole-5-sulfonamide], 370 nM; with `CCC1(CC)CN(C(=O)[C@H]2CC[C@H](NS(=O)(=O)c3ccc4cc(-c5ccccc5)n(C)c4c3)CC2)CCO1` [Example 424, N-((1r,4r)-4-(2,2-diethylmorpholine-4-carbonyl)cyclohexyl)-1-methyl-2-phenyl-1H-indole-6-sulfonamide], 50 nM. With `O=C(NCCc1ccccc1)[C@H]1CC[C@H](NS(=O)(=O)c2ccc3[nH]c(-c4ccccc4)nc3c2)CC1` [Example 628, (1r,4r)-N-phenethyl-4-(2-phenyl-1H-benzo[d]imidazole-5-sulfonamido)cyclohexanecarboxamide] the figure was 408 nM; with `Cc1ccc(-c2nc3ccc(S(=O)(=O)Nc4ccc(C(=O)OC(C)C)cc4)cc3[nH]2)cc1` [Example 504, isopropyl 4-(2-p-tolyl-1H-benzo[d]imidazole-6-sulfonamido)benzoate], 1740 nM. On to `CCN(CC)c1ccc(Nc2nc3cc(S(=O)(=O)Nc4ccc(C(=O)OC(C)C)cc4)ccc3[nH]2)cc1` [Example 537, isopropyl 4-(2-(4-(diethylamino)phenylamino)-1H-benzo[d]imidazole-5-sulfonamido)benzoate], for which the 50% inhibitory concentration (IC50) was 290 nM. With `Cn1c(-c2ccc(CCC(=O)O)cc2)cc2ccc(S(=O)(=O)N[C@H]3CC[C@H](C(=O)N4CCCC4c4ccc(F)cc4)CC3)cc21` (stereo partly shown) [Example 387, 3-(4-(6-(N-((1r,4r)-4-(2-(4-fluorophenyl)pyrrolidine-1-carbonyl)cyclohexyl)sulfamoyl)-1-methyl-1H-indol-2-yl)phenyl)propanoic acid] the figure was less than 10 nM; with `O=C([C@H]1CC[C@H](NS(=O)(=O)c2ccc3c(Cl)c(-c4ccccc4)[nH]c3c2)CC1)N1CCCCC1` [Example 373, 3-chloro-2-phenyl-N-((1r,4r)-4-(piperidine-1-carbonyl)cyclohexyl)-1H-indole-6-sulfonamide], 75 nM; with `C[C@@H](NC(=O)[C@H]1CC[C@H](NS(=O)(=O)c2ccc3cc(-c4ccccc4)[nH]c3c2)CC1)c1ccc(F)cc1` [Example 18, (1r,4R)—N—((R)-1-(4-fluorophenyl)ethyl)-4-(2-phenyl-1H-indole-6-sulfonamido)cyclohexanecarboxamide], 11 nM. With `O=C(N[C@@H](c1ccccc1)C(F)(F)F)[C@H]1CC[C@H](NS(=O)(=O)c2ccc3[nH]c(-c4ccccc4)nc3c2)CC1` [Example 274, (1r,4S)-4-(2-phenyl-1H-benzo[d]imidazole-5-sulfonamido)-N-((S)-2,2,2-trifluoro-1-phenylethyl)cyclohexanecarboxamide] the figure was 4030 nM; with `C[C@@H](NC(=O)[C@H]1CC[C@H](NS(=O)(=O)c2ccc3[nH]ccc3c2)CC1)c1ccc(F)cc1` [Example 16, (1r,4R)—N—((R)-1-(4-fluorophenyl)ethyl)-4-(1H-indole-5-sulfonamido)cyclohexanecarboxamide], 51 nM. Regarding `COCc1ccc(-c2cc3ccc(S(=O)(=O)N[C@H]4CC[C@H](C(=O)N5CCOC[C@@H]5C(C)C)CC4)cc3n2C)cc1` [Example 438, N-((1S,4r)-4-((S)-3-isopropylmorpholine-4-carbonyl)cyclohexyl)-2-(4-(methoxymethyl)phenyl)-1-methyl-1H-indole-6-sulfonamide], the IC50 was less than 10 nM. With `O=C(O)CCc1ccc(-c2cc3ccc(S(=O)(=O)N[C@H]4CC[C@H](C(=O)N5CCCCC5)CC4)cc3[nH]2)cc1` [Example 358, 3-(4-(6-(N-((1r,4r)-4-(piperidine-1-carbonyl)cyclohexyl)sulfamoyl)-1H-indol-2-yl)phenyl)propanoic acid] the figure was 35 nM; with `CC(=O)c1cccc(-c2nc3ccc(S(=O)(=O)Nc4ccc(C(=O)OC(C)C)cc4)cc3[nH]2)c1` [Example 494, isopropyl 4-(2-(3-acetylphenyl)-1H-benzo[d]imidazole-6-sulfonamido)benzoate], 1890 nM; with `CC(C)OC(=O)c1ccc(NS(=O)(=O)c2ccc3[nH]c(-c4ccc(CN(C)C)cc4)nc3c2)cc1` [Example 558, isopropyl 4-(2-(4-((dimethylamino)methyl)phenyl)-1H-benzo[d]imidazole-5-sulfonamido)benzoate], 337 nM. Under `CC(C)(C)c1nnc([C@H]2CC[C@H](NS(=O)(=O)c3ccc4[nH]c(-c5ccc(C(=O)O)cc5)nc4c3)CC2)o1` [Example 656, 4-(5-(N-((1r,4r)-4-(5-tert-butyl-1,3,4-oxadiazol-2-yl)cyclohexyl)sulfamoyl)-1H-benzo[d]imidazol-2-yl)benzoic acid] stands 870 nM; under `CC(C)OC(=O)c1ccc(NS(=O)(=O)c2ccc3[nH]c(Nc4cccc(C#N)c4)nc3c2)cc1` [Example 525, isopropyl 4-(2-(3-cyanophenylamino)-1H-benzo[d]imidazole-5-sulfonamido)benzoate], 166 nM.

Regarding `C[C@@H](NC(=O)[C@H]1CC[C@H](NS(=O)(=O)c2ccc3cc(CCOS(C)(=O)=O)[nH]c3c2)CC1)c1ccc(F)cc1` [Example 306, 2-(6-(N-((1R,4r)-4-((R)-1-(4-fluorophenyl)ethylcarbamoyl)cyclohexyl)sulfamoyl)-1H-indol-2-yl)ethyl methanesulfonate], the IC50 was 50 nM. Under `CCN(C)C(=O)[C@H]1CC[C@H](NS(=O)(=O)c2ccc3cc(-c4ccc(CCC(=O)O)cc4)n(C)c3c2)CC1` [Example 365, 3-(4-(6-(N-((1r,4r)-4-(ethyl(methyl)carbamoyl)cyclohexyl)sulfamoyl)-1-methyl-1H-indol-2-yl)phenyl)propanoic acid] stands 410 nM. With `C[C@@H](NC(=O)[C@H]1CC[C@H](NS(=O)(=O)c2ccc3c(c2)N(C)[C@H](C(=O)O)CC3)CC1)c1ccc(F)cc1` [Example 250, (S)-7-(N-((1R,4S)-4-((R)-1-(4-fluorophenyl)ethylcarbamoyl)cyclohexyl)sulfamoyl)-1-methyl-1,2,3,4-tetrahydroquinoline-2-carboxylic acid] the figure was 595 nM; with `CC(C)[C@H]1COCCN1C(=O)[C@H]1CC[C@H](NS(=O)(=O)c2ccc3c(Cl)c(-c4ccccc4)[nH]c3c2)CC1` [Example 468, 3-chloro-N-((1S,4r)-4-((S)-3-isopropylmorpholine-4-carbonyl)cyclohexyl)-2-phenyl-1H-indole-6-sulfonamide], less than 10 nM.

(Values after US8697739B2, “Bicyclic acetyl-CoA carboxylase inhibitors and uses thereof” (Novartis AG, priority 2010, dated 2014).)
